How the values were obtained:
Hela cells = assay: Drug susceptibility test of selection antibiotics on HeLa cells; assay type: cell-based
HepG2 cells = assay: Drug susceptibility test of selection antibiotics on HepG2 cells; assay type: cell-based
human OATP1B1 (hOATP1B1) = target: T1, human OATP1B1 (hOATP1B1) (Homo sapiens, UniProt Q9Y6L6); conditions: pH 7.4
T1 sequence (Q9Y6L6 1-691): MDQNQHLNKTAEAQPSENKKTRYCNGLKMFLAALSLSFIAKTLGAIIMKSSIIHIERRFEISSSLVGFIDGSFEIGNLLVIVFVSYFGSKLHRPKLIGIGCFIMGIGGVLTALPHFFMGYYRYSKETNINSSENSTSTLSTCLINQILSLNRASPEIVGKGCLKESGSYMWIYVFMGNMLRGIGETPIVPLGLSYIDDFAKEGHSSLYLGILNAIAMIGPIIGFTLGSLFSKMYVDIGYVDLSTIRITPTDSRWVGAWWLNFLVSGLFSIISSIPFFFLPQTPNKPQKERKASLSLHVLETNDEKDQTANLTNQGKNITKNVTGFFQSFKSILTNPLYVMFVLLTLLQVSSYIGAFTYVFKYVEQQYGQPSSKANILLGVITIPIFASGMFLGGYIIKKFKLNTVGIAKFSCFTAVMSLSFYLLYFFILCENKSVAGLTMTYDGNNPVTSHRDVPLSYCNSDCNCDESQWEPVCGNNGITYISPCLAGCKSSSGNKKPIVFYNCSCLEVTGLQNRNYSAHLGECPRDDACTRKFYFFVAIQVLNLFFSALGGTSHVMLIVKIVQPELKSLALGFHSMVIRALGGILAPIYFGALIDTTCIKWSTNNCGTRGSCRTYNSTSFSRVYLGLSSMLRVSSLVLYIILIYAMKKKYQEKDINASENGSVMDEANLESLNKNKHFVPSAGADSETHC
Method: (§1) Cells for experiments were cultured in DMEM medium at 37° C. and 5% C02. Among them, DMEM medium contains 10% fetal calf serum, penicillin-streptomycin solution (100 U/mL and 0.1 mg/mL) and 0.5 mg/mL geneticin. Before the transfer experiment, cells were seeded in a 24-well plate at a density of 4×10^5 cells/well. The transfer experiment can be performed when the cell confluence reaches 80-90%.
(§2) The concentrations of substrates and positive inhibitors for each transporter are as follows.
(§3) Preparation of working solution: Use PBS to prepare a test substance stock solution with a concentration of 6 mM, and then dilute it with PBS in a gradient to 2000 μM, 1000 μM, 200 μM, 100 μM and 20 μM concentration working solution, and dilute the above working solutions of different concentrations to 20 μM, 10 μM, 2 μM, 1 μM and 0.2 μM concentration dosing solutions (Dosing Solution) respectively, so that the final concentrations of the test substance in the test system are 10 μM, 5 μM and 5 μM respectively. μM, 1 μM, 0.5 μM and 0.1 μM.
(§4) Pre-incubation of OATP1B1 and OATP1B3: Aspirate the culture medium from the culture plate, and wash the cells twice with 37° C. pre-warmed TB buffer (pH7.4), 0.5 mL each time. […] Among them, the NC group includes MOCK cells and each transporter cell, and the MOCK cell group is used to calculate the uptake ratio and passive transport amount. […]

human OATP1B3 (hOATP1B3) = target: T2, human OATP1B3 (hOATP1B3) (Homo sapiens, UniProt Q9NPD5); conditions: pH 7.4
T2 sequence (Q9NPD5 1-702): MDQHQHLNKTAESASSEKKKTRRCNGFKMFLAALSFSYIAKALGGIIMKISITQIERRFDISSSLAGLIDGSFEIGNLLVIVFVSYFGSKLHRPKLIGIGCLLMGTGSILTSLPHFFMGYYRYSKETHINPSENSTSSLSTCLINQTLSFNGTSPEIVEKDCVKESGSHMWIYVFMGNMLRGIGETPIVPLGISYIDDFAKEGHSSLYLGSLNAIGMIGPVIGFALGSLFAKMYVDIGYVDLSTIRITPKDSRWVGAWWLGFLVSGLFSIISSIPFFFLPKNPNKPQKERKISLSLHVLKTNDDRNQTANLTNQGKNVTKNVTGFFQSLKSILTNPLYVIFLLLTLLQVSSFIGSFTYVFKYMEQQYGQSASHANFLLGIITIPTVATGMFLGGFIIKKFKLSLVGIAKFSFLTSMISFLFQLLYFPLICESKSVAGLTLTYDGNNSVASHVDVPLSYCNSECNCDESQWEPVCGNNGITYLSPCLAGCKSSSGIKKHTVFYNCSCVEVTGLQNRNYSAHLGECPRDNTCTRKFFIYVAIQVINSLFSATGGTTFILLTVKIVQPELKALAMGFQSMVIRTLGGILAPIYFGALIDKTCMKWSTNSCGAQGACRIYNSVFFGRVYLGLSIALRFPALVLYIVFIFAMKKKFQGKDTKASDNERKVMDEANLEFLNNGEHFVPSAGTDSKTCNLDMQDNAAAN
Method: as §1, §2, §3, §4

With `COc1ccc(C[C@H](N)C(=O)N[C@H]2[C@@H](O)[C@H](n3cnc4c(N(C)C)ncnc43)O[C@@H]2CO)cc1` [puromycin] the “concentration that could kill all cultured cells” value (Hela cells) was 1 µg/mL and the “concentration that could kill all cultured cells” value (HepG2 cells) was 1 µg/mL.
For `CCCCC(=O)N(Cc1ccc(-c2ccccc2-c2nnn[nH]2)cc1)[C@H](C(=O)O)C(C)C` [valsartan], the “uptake ratio of drug substrate” value (human OATP1B1 (hOATP1B1)) was 3.25 and the “uptake ratio of drug substrate” value (human OATP1B3 (hOATP1B3)) was 6.90.
`CN(CC[C@H](N)CC(=O)N[C@H]1C=C[C@H](n2ccc(N)nc2=O)O[C@@H]1C(=O)O)C(=N)N` [BSD, Blasticidin] was tested, and the “concentration that could kill all cultured cells” value (HepG2 cells) was 2 µg/mL.

Source: patent US20260137774A1, “Hepatitis B Virus Receptor OATP and Use Thereof” (priority 2022, published 2026)
